This passage reports IC50 results from patent publication US7598377B2, “Inhibition of phosphoinositide 3-kinase β” (AstraZeneca AB, priority 2002, dated 2009).

Assay type in all cases: biochemical
In experiment [1] the test system is PI 3-kinase immunoprecipitated from human platelets (p85/110 form). The experiment is described as follows: In vitro PI 3-kinase assay (Example 8), Platelet IP (p85). The settings on record: read-out: Platelet IP (p85) IC50s. How it is done:
The effect of pyridine-substituted compounds on PI 3-kinase activity was determined using an in vitro PI 3-kinase assay. This assay was performed using PI 3-kinase immunoprecipitated from human platelets as the enzyme and PI as the substrate. The PI 3-kinase activity was quantitated by measuring the enzymatic incorporation of [^32P] into PI, forming PI([^32P]-3)P, as previously described (Susa et al., 1992, The Journal of Biological Chemistry 267(32):22951-22956.
Washed human platelets were lysed in Triton X-100 lysis buffer (10 mM Tris, pH 7.4, 1% Triton X-100, 2 mM EDTA, 1 mM PMSF) for 30 minutes. The Triton X-100 insoluble fraction was removed by centrifugation of the cell lysates at 15,000 g for 10 minutes. PI 3-kinase was immunoprecipitated by mixing 500 μg of the cell lysate with 1 μg of a rabbit anti-rat antibody against the p85/110 form of PI 3-kinase and 30 μl of 50% Protein A-sepharose beads for 2 hours at 4° C. The Protein A-sepharose-bound PI 3-kinase was isolated by pelleting the beads at 15,000 g for 5 seconds, and washing three times with ice-cold Triton X-100 lysis buffer followed by four washes with PI 3-kinase assay buffer (20 mM HEPES, pH 7.4, 1 mM EGTA, 5 mM MgCl2).
PI stored in CHCl3 was dried under N2, resuspended in the lipid buffer (50 mM HEPES, pH 7.2, 1 mM EDTA) at a final concentration of 330 μg/ml, and sonicated for 6 minutes on ice. PI([^32P]-3)P was generated by mixing the immunoprecipitated PI 3-kinase for 20 minutes with 40 μl of the PI, 10 μl of ATP (1 mM) and ^32P-r-ATP (0.5 μCi, 1 μCi/nmol), 10 μl of 10× kinase buffer, in a final assay volume of 100 μl adjusted with H2O. TGX-was preincubated with the PI 3-kinase for 5 minutes prior to the addition of ATP. The assay was terminated with 100 μl of 1 N HCl, and the PI([^32P]-3)P product extracted with 200 μl chloroform:methanol (1:1) and 500 μl 2 M KCl. The PI([^32P]-3)P in the chloroform phase was resolved by thin layer chromatography using a solvent system containing CHCl3:MeOH:HAC:H2O (43:38:5:7) (v:v:v:v), and visualized by autoradiography. The PI([^32P]-3)P spots were then scraped off from the TLC plates, deacylated with 1 ml methylamine:butanol:methanol (42:9:47) (v:v:v) for 4 hours at 53° C., and quantitated using a liquid scintillation counter (LKB 1209 RackBETA).

The next experiment deals with T1, P110 γ (Homo sapiens, UniProt P48736).
T1 construct: made in house
The experiment is described as follows: Isoform selective in vitro PI3K enzyme assay (Example 13), γ recombinant. The settings on record: read-out: P110 γ IC50s. How it is done: In vitro enzyme assays were conducted as a primary screen to determine drug candidate isoform affinity and specificity. The α and β isoforms of the PI3K were immunoprecipitated from a platelet lysate, using an antibodies obtained from Santa Cruz Biotechnology, that recognized specific regions of p110α (sc-7174) and β (sc-603) isoforms. The γ isoform was produced as a recombinant protein in the Kinacia laboratories. […] Standard phosphorylation assays using phosphatidylinositol and ^32P were used to measure the enzyme activity in the immunoprecipates in the presence or absence of an inhibitor. Enzyme activity was determined over a range of inhibitor concentrations to establish an IC50 value.

The next experiment concerns the target T2, P110 δ (Homo sapiens, UniProt O00329).
T2 construct: The δ isoform was immunoprecipitated from THP-1 cells; endogenous in cells; host or cells: THP-1 cells (immunoprecipitated with antibody sc-7176)
The experiment can be described thus: Isoform selective in vitro PI3K enzyme assay (Example 13), δ from THP-1 cells. The settings on record: read-out: P110 δ IC50s. The protocol: In vitro enzyme assays were conducted as a primary screen to determine drug candidate isoform affinity and specificity. […] The γ isoform was produced as a recombinant protein in the Kinacia laboratories. […] Standard phosphorylation assays using phosphatidylinositol and ^32P were used to measure the enzyme activity in the immunoprecipates in the presence or absence of an inhibitor. Enzyme activity was determined over a range of inhibitor concentrations to establish an IC50 value.

T1 sequence (P48736 whole entry, species assumed): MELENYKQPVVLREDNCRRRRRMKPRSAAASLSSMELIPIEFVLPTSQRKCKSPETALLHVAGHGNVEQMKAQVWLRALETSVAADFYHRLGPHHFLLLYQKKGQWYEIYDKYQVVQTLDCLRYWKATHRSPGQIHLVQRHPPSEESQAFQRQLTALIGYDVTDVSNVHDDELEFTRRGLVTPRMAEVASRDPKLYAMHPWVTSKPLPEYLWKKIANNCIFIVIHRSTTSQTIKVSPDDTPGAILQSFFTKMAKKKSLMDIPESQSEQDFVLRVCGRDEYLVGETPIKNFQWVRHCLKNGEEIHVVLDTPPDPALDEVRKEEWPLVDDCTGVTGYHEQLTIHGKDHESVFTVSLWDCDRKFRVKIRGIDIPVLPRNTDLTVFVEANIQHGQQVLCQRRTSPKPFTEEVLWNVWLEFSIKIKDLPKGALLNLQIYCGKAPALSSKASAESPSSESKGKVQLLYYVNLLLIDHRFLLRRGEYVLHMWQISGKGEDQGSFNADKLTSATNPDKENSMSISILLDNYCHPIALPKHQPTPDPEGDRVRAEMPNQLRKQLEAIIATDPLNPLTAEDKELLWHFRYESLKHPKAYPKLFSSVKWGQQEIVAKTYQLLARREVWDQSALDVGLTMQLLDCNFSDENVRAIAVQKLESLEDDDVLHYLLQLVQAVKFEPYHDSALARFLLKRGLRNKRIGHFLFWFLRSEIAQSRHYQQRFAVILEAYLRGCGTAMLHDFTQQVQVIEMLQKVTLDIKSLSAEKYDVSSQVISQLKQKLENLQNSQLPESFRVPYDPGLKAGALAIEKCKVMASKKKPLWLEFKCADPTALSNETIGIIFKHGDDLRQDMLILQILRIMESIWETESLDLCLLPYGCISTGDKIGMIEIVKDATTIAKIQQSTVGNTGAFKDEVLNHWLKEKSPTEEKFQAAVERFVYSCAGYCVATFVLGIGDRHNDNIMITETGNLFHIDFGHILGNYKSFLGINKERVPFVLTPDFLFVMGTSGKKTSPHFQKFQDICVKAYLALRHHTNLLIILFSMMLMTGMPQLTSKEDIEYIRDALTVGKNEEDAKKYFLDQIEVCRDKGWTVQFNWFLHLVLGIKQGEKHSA
T2 sequence (O00329 whole entry, canonical isoform): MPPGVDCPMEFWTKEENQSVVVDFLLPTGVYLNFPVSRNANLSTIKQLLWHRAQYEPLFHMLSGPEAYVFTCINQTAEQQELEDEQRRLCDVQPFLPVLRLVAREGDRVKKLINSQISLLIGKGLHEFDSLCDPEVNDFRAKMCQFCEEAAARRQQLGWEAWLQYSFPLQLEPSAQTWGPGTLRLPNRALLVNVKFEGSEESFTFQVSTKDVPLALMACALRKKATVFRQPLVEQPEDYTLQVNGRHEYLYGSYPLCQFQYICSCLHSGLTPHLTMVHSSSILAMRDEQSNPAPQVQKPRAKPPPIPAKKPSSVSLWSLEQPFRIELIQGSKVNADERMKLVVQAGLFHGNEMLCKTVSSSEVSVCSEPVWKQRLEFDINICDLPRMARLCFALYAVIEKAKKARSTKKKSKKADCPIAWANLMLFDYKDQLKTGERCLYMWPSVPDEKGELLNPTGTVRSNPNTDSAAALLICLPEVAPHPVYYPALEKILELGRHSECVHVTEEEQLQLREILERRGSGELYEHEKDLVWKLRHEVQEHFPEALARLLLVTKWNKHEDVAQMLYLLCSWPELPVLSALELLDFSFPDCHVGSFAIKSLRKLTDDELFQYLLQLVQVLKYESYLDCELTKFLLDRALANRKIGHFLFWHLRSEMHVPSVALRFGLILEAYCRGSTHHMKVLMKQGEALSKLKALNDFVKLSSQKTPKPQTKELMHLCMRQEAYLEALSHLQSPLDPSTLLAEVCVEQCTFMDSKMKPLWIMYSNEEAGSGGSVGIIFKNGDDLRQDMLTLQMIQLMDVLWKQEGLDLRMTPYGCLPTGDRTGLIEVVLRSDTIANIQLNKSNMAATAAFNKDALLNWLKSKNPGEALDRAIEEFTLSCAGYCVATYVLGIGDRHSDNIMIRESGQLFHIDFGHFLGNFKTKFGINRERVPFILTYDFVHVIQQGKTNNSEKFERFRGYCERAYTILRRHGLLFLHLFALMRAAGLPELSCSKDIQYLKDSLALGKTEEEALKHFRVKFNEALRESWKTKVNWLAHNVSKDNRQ
T2 sequence (P27986 whole entry partner, canonical isoform): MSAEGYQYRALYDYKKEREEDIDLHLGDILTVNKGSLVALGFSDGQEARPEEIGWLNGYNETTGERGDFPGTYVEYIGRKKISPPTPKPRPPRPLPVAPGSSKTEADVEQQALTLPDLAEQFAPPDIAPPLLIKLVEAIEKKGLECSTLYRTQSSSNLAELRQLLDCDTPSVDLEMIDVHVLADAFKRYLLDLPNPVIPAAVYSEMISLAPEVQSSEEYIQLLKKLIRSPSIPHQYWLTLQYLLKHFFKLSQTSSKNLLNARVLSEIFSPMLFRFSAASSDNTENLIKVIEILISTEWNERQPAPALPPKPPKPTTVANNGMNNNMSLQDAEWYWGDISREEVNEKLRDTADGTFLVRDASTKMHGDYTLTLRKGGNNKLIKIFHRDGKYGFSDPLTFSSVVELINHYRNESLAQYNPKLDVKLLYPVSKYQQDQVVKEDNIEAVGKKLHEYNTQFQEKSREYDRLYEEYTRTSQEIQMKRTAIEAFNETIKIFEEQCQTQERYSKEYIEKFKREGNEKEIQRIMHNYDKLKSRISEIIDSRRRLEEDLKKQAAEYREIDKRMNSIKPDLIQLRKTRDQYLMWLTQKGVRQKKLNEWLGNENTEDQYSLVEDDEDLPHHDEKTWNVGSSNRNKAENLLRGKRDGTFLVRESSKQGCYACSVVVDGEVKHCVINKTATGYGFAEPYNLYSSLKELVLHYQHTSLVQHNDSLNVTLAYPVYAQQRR

With `O=c1cc(-c2ccncc2)[nH]c2c(Cc3ccccc3)cccc12` [KN346, 8-Benzyl-2-(4-pyridinyl)-4(1H)-quinolinone], the IC50 was over 10000 nM in experiment [1], over 10000 nM at P110 γ and 10000 nM on P110 δ.
Consider `Cc1cccn2c(=O)cc(-c3ccncc3)nc12` [KN347, 9-methyl-2-(4-pyridinyl)-4H-Pyrido[1,2-a]pyrimidin-4-one], for which the IC50 (in experiment [1]; on P110 γ; on P110 δ) was over 10000 nM each time.
With `Cc1cc(C(C)Nc2cccc(C(F)(F)F)c2)c2oc(-c3ccncc3)cc(=O)c2c1` (stereo not drawn) [KN322, 8-1-(3-trifluoromethylphenylamino)ethyl-6-methyl-2-(4-pyridinyl)-4H-1-benzopyran-4-one], the IC50 (in experiment [1]; at P110 δ) was 1000 nM in each case.
On to `Cc1cc(CNc2ccccc2)c2oc(-c3ccncc3)cc(=O)c2c1` [KN312, 6-methyl-8-phenylaminomethyl-2-(4-pyridinyl)-4H-benzopyran-1-one], for which, in experiment [1], the IC50 was found to be 50 nM.
With `O=c1cc(-c2ccncc2)oc2cc(OCc3ccccc3)ccc12` [KN342, 7-Benzyloxy-2-(4-pyridinyl)-4H-benzopyran-1-one], the IC50 on P110 γ and at P110 δ was over 10000 nM each time.
Take `Cc1cc(-c2ccccc2)c2oc(-c3ccncc3)cc(=O)c2c1` [TGX258, 8-Phenyl-6-methyl-2-(4-pyridinyl)-4H-benzopyran-1-one]: the IC50 was over 20000 nM at P110 γ and over 10000 nM on P110 δ.
For `Cc1cc(C(C)Nc2ccccc2)c2oc(-c3cc(C)nc(Cl)c3)cc(=O)c2c1` (stereo not drawn) [KN340, 8-1-(phenylamino)ethyl-6-methyl-2-(2-chloro-6-methyl-4-pyridinyl)-4H-1-benzopyran-4-one] the same measures were over 10000 nM and over 10000 nM.
Turning to “6-methyl-8-(2-acetamido)phenylaminomethyl-2-(4-pyridinyl)-4H-benzopyran-1-one [KN326]”, the IC50 was determined as 500 nM in experiment [1], 5000 nM on P110 γ and 1000 nM at P110 δ.
In the case of `Cc1cc(CNc2ccccn2)c2oc(-c3ccncc3)cc(=O)c2c1` [KN315, 6-methyl-8-(2-pyridinyl)aminomethyl-2-(4-pyridinyl)-4H-benzopyran-1-one], the IC50 was over 100 nM in experiment [1], 5000 nM on P110 γ and 5000 nM at P110 δ.
`Cc1cc(C(C)Oc2ccccc2)c2oc(-c3ccncc3)cc(=O)c2c1` (stereo not drawn) [KN317, 6-methyl-8-1-(phenoxy)ethyl-2-(4-pyridinyl)-4H-benzopyran-1-one]: the IC50 is over 100 nM in experiment [1] and 5000 nM at P110 δ.
On to `O=c1cc(-c2ccncc2)[nH]c2c(Oc3ccccc3)cccc12` [KN319, 8-phenoxy-2-(4-pyridinyl)-4-(1H)-quinolinone], for which the IC50 in experiment [1] turned out to be 500 nM; at P110 γ it was 20000 nM; on P110 δ, 300 nM.
For the compound `O=c1cc(-c2ccncc2)oc2c(NCc3ccccc3)cccc12` [KN336], the results for the IC50 (in experiment [1]; on P110 γ; at P110 δ) were 1000 nM, 10000 nM and 200 nM, respectively.
For the compound `COc1cccc2c(=O)cc(-c3ccncc3)[nH]c12` [KN344, 8-methoxy-2-(4-pyridinyl)-4(1H)-quinolinone], the IC50 in experiment [1] was 5000 nM; on P110 γ it was over 10000 nM.
Take `Cc1cc(C(C)Nc2cccc(C)n2)c2oc(-c3ccncc3)cc(=O)c2c1` (stereo not drawn) [KN310, 8-1-(6-methylpyridin-2-ylamino)ethyl-6-methyl-2-(4-pyridinyl)-4H-1-benzopyran-4-one]: the IC50 came out at 100 nM in experiment [1], 7500 nM at P110 γ and 1000 nM on P110 δ.
Taken in the same sequence, the figures for `Cc1cc(F)ccc1Oc1cccc2c(=O)cc(-c3ccncc3)[nH]c12` [KN337, 8-(4-Fluoro-2-methylphenoxy)-2-(4-pyridinyl)-4(1H)-quinolinone] were 200 nM, over 10000 nM and 200 nM.
As for `O=c1cc(-c2ccncc2)[nH]c2c(-c3ccccc3)cccc12` [KN345, 8-phenyl-2-(4-pyridinyl)-4(1H)-quinoline], the IC50 in experiment [1] is 5000 nM; on P110 γ it was over 10000 nM.
Regarding “8-Naphthyl-2-(4-pyridinyl)-4(1H)-quinolinone [KN350]”, in experiment [1], the IC50 stood at 500 nM.
As for `O=c1cc(-c2ccncc2)nc2c(Cc3ccccc3)cccn12` [KN349, 9-Benzyl-2-(4-pyridinyl)-4H-Pyrido[1,2-a]pyrimidin-4-one], the IC50 in experiment [1] was 500 nM; at P110 γ it was over 10000 nM; at P110 δ it was 2000 nM.
On to `Cc1cc(COc2ccccc2)c2oc(-c3ccncc3)cc(=O)c2c1` [KN313, 6-methyl-8-phenoxymethyl-2-(4-pyridinyl)-4H-benzopyran-1-one], for which the IC50 in experiment [1] worked out at 100 nM; at P110 δ, 5000 nM.
For `Cc1cc(C(C)Nc2ccc(F)cc2C)c2oc(-c3ccncc3)cc(=O)c2c1` (stereo not drawn) [KN303, 8-1-(4-fluoro-2-methylphenylamino)ethyl-6-methyl-2-(4-pyridinyl)-4H-1-benzopyran-4-one], the IC50 in experiment [1] amounted to 10 nM; at P110 γ, 1500 nM; at P110 δ, 500 nM.
Consider `Cc1cc(C(C)n2c(C(F)(F)F)nc3ccccc32)c2oc(-c3ccncc3)cc(=O)c2c1` (stereo not drawn) [KN328, 6-methyl-8-1-(2-trifluoromethyl-benzimidazol-1-yl)-ethyl-2-(4-pyridinyl)-4H-benzopyran-1-one], for which the IC50 in experiment [1] amounted to 50 nM.
Turning to `O=c1cc(-c2ccncc2)oc2c(OCc3ccccc3)cccc12` [KN335, 8-Benzyloxy-2-(4-pyridinyl)-4H-benzopyran-1-one], the IC50 (in experiment [1]; on P110 δ) was 1000 nM each time.
For `O=c1cc(-c2ccncc2)oc2c(Nc3cccc(F)c3)cccc12` [KN351, 8-(3-Fluorophenylamino)-2-(4-pyridinyl)-4H-benzopyran-1-one], in experiment [1], the IC50 is 500 nM.
`O=c1cc(-c2ccncc2)oc2c(Nc3ccccc3)cccc12` [KN341]: the results for the IC50 (in experiment [1]; on P110 γ; at P110 δ) were 500 nM, 5000 nM and 50 nM, respectively.
Take `O=c1cc(-c2ccncc2)nc2c(NCCc3ccccc3)cccn12` [KN316, 9-(2-phenethyl)amino-2-(4-pyridinyl)-4H-Pyrido[1,2-a]pyrimidin-4-one]: the IC50 (in experiment [1]; at P110 δ) was 1000 nM in each case.
